Key:
[1] = target: γ-secretase; details: as suggested by the manufacturer; cited from earlier work
[2] = tested on: Chk1 and Chk2; experiment: Immunoblotting of activating phosphorylation of Chk1 and Chk2; format: cell-based, human; details: following radiation, pretreated 24 hours
Experimental: (A) T4302 CD133+ cells were pretreated with DPAT or L685,458 for 24 hours prior radiation. One hour after radiation exposure, cells were harvested. The levels of activating phosphorylation of Chk1 and Chk2 were assessed by immunoblotting. (B) T4302 CD133+ cells were treated with 2 μM DAPT at 4, 24 hours prior to radiation (−24 hrs, or -4 hrs), or at 0, 4, 24 hours after radiation. Relative caspase 3/7 activities were measured 3 days after radiation exposure. *: p<0.001 by Student's t-test.
Antibodies, DNA constructs, lentiviruses and other reagents. The antibodies purchased from Cell Signaling Technology (Danvers, M A) include phosphor-S296-Chk1 (2349), total Chk1 (2345), phosphor-T68-Chk2 (2661), total Chk2 (2662), phospho-5473 Akt (#9271), total Akt (#9272), PTEN (#9556), phospho-S15-p53 (#9286), Bcl-2 (#2870), Bcl-xL (#2764), Mcl-1 (#4572), Puma (#4976). Other antibodies used in this study are p53 antibody (#sc-126, Santa Cruz Biotechnology, Santa Cruz, Calif.), and actin antibody (Millipore, Billerica, Mass.). The pcDNA3-Notch1 construct was kindly provided by Dr. Spyros Artavanis-Tsakonas, Harvard University. The coding sequences of intracellular domain of Notch1 (amino acid residues 1744-2556) was amplified by PCR and subcloned into the lentiviral vector pCDH-CMV-EF1-puro (System Biosciences, Mountain View, Calif.) through the EcoRI and NotI sites. […]

[3] = tested on: Akt; experiment: Immunoblotting of phospho-Akt (S473); format: cell-based, human; details: 2 μM DAPT
Experimental: FIG. 5 is a set of immunoblots and a graph illustrating that the Notch pathway regulates radioresistance of glioma stem cells via the Akt pathway and Mcl-1. T4302 CD 133+ cells were infected with control lentivirus or lentivirus directing expression of NICD2. Cells were pre-treated with or without 2 μM DPAT for 4 hours and exposed to 3-Gy radiation. Irradiated cells were collected at 24 or 48 hours after radiation, and sham-irradiated cells were collected at 48 hours after radiation. (A, C, D) Protein levels of phospho-Akt (S473), total Akt, PTEN, Bcl-2, Bcl-xL, Mcl-1, phospho-p53 (S15), total p53 and PUMA were assessed by immunoblotting. Actin was blotted as the loading control. (B) Control cells or NICD2-expressing cells were pre-treated with 10 μM PI3K inhibitor, LY294002, or 50 μM Akt inhibitor III (SH-6), for 4 hours prior to radiation exposure. Relative caspase 3/7 activities were determined at 48 hours after radiation exposure. #: p<0.001, by one-way ANOVA.
FIG. 13 is an immunoblot illustrating that LY294002 or Akt inhibitor III reduce Akt activity in glioma stem cells. T4302 glioma stem cells were treated with 10 μM LY294002 or 50 μM Akt inhibitor III (SH-6) in the presence or absence of radiation. Cells were collected for immunoblotting at 48 hours after radiation as described in FIG. 5.
Antibodies, DNA constructs, lentiviruses and other reagents. […]

[4] = tested on: Notch signaling; experiment: Notch-responsive luciferase reporter (RBP-Jκ reporter) assay; format: cell-based, human; details: T4302 CD133+ cells; 2 μM DAPT or 0.5 μM L685,458 over night
Source text: FIG. 1 is a series of graphs illustrating that γ-secretase inhibitors reduce cell growth and clonogenic survival of glioma stem cells following radiation. (A) T4302 CD133+ glioma stem cells were transfected with a Notch-responsive luciferase reporter (RBP-JK reporter) pre-mixed with the vector directing constitutive expression of Renilla luciferase. Cells were left unirradiated or irradiated at 3 Gy, and were then collected to measure luciferase activities at time points as indicated. […] The relative mRNA levels of Hes2 were determined by quantitative real-time PCR at the time points as indicated. […] Total viable cell numbers were then determined by the CellTiter-Glo Luminescent Cell Viability Assay (Promega) for the following five days. […] Cells were then plated to form neurospheres, and the surviving fractions were determined as described in methods. […] (F,G) Neurosphere formation of T3359 and T4105 CD 133+ cells treated with GSIs alone, 3-Gy radiation alone, or the combination was determined as described in FIG. 1E. *: p<0.05 by Student's t-test; #: p<0.001 by one-way ANOVA.
Luciferase assay. […] The luciferase activities were determined by the Dual-luciferase assay system (Promega).

SMILES: CC(NC(=O)Cc1cc(F)cc(F)c1)C(=O)NC(C(=O)OC(C)(C)C)c1ccccc1 [DAPT, N-[N-(3,5-Difluorophenacetyl-L-alanyl)]-S-phenylglycine t-Butyl Ester]
- IC50 [1]: 200 nM
- activating phosphorylation of Chk1 or Chk2 [2]: Neither of DAPT or L685,458 significantly altered
- Akt activation (phospho-S473 Akt) ([3]; 3-Gy radiation, control cells): reduced Akt activation
- Akt activities increased by NICD2 expression ([3]; NICD2-expressing cells): partially attenuated but not abolished
- Notch signaling in glioma stem cells (Notch-responsive luciferase reporter) [4]: blocked

From US20110059114A1, “Compositions and Methods for the Treatment of Radioresistant Glioma Stem Cells” (DUKE UNIVERSITY, priority 2009, published 2011)
